Data published in PubChem BioAssay (NCI).
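Tested at 5 concentrations; 48 h exposure; 96-well plates; endpoints linearly interpolated, else capped at highest concentration. GI50 = concentration required for 50% inhibition of growth. TGI: total growth inhibition.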

Columns and labels:
Assay in all cases: NCI anticancer screen, dose series, 48 h
SNB-19 CNS = system: SNB-19 CNS
RXF 393 renal = system: RXF 393 renal
SW-620 colon = system: SW-620 colon
SK-OV-3 ovarian = system: SK-OV-3 ovarian
MDA-MB-231 breast = system: MDA-MB-231 breast
HOP-92 NSCLC = system: HOP-92 NSCLC
COLO 205 colon = system: COLO 205 colon
NCI-H226 lung = system: NCI-H226 lung
HL-60(TB) leukemia = system: HL-60(TB) leukemia
EKVX NSCLC = system: EKVX NSCLC
LOX IMVI melanoma = system: LOX IMVI melanoma
U251 CNS = system: U251 CNS
OVCAR-3 ovarian = system: OVCAR-3 ovarian
CCRF-CEM leukemia = system: CCRF-CEM leukemia
MOLT-4 leukemia = system: MOLT-4 leukemia
CAKI-1 renal = system: CAKI-1 renal
MCF7 breast = system: MCF7 breast
SN12C renal = system: SN12C renal
UACC-62 melanoma = system: UACC-62 melanoma
SK-MEL-5 melanoma = system: SK-MEL-5 melanoma
M14 melanoma = system: M14 melanoma
ACHN renal = system: ACHN renal
786-0 renal = system: 786-0 renal
DU-145 prostate = system: DU-145 prostate
A549 NSCLC = system: A549 NSCLC
OVCAR-4 ovarian = system: OVCAR-4 ovarian
NCI-H460 lung = system: NCI-H460 lung
SK-MEL-2 melanoma = system: SK-MEL-2 melanoma
UO-31 renal = system: UO-31 renal
PC-3 prostate = system: PC-3 prostate
K-562 leukemia = system: K-562 leukemia
SF-268 CNS = system: SF-268 CNS
HCT-15 colon = system: HCT-15 colon
NCI-H23 lung = system: NCI-H23 lung
NCI-H522 lung = system: NCI-H522 lung
T-47D breast = system: T-47D breast
KM12 colon = system: KM12 colon
A498 renal = system: A498 renal
SK-MEL-28 melanoma = system: SK-MEL-28 melanoma
HT29 colon = system: HT29 colon
OVCAR-5 ovarian = system: OVCAR-5 ovarian
UACC-257 melanoma = system: UACC-257 melanoma
HS 578T breast = system: HS 578T breast
BT-549 breast = system: BT-549 breast
OVCAR-8 ovarian = system: OVCAR-8 ovarian
IGROV1 ovarian = system: IGROV1 ovarian
MDA-MB-468 breast = system: MDA-MB-468 breast
MDA-MB-435 = system: MDA-MB-435
HCT-116 colon = system: HCT-116 colon
HCC-2998 colon = system: HCC-2998 colon
SR leukemia = system: SR leukemia
SF-539 CNS = system: SF-539 CNS
SF-295 CNS = system: SF-295 CNS
MALME-3M melanoma = system: MALME-3M melanoma
RPMI-8226 leukemia = system: RPMI-8226 leukemia
TK-10 renal = system: TK-10 renal
SNB-75 CNS = system: SNB-75 CNS
HOP-62 NSCLC = system: HOP-62 NSCLC

COc1cc(C2C(C(=O)OCc3ccccc3)=C(C)Nc3nc4ccccc4n32)cc(OC)c1OC (stereo unspecified)
GI50 (SNB-19 CNS): 3.65 µM
TGI (SNB-19 CNS): 15.8 µM
GI50 (RXF 393 renal): 1.4 µM
TGI (RXF 393 renal): 4.71 µM
GI50 (SW-620 colon): 6.23 µM
TGI (SW-620 colon): > 100 µM
GI50 (SK-OV-3 ovarian): 2.46 µM
TGI (SK-OV-3 ovarian): 5.86 µM
GI50 (MDA-MB-231 breast): 1.97 µM
TGI (MDA-MB-231 breast): 4.68 µM
GI50 (HOP-92 NSCLC): 2.12 µM
TGI (HOP-92 NSCLC): 6.61 µM
GI50 (COLO 205 colon): 12.5 µM
TGI (COLO 205 colon): > 100 µM
GI50 (NCI-H226 lung): 2.19 µM
TGI (NCI-H226 lung): 6.81 µM
GI50 (HL-60(TB) leukemia): 7.02 µM
TGI (HL-60(TB) leukemia): 76.7 µM
GI50 (EKVX NSCLC): 10.8 µM
TGI (EKVX NSCLC): 56.2 µM
GI50 (LOX IMVI melanoma): 3.43 µM
TGI (LOX IMVI melanoma): 12.9 µM
GI50 (U251 CNS): 3.25 µM
TGI (U251 CNS): 11.3 µM
GI50 (OVCAR-3 ovarian): 2.67 µM
TGI (OVCAR-3 ovarian): 7.56 µM
GI50 (CCRF-CEM leukemia): 7.01 µM
TGI (CCRF-CEM leukemia): > 100 µM
GI50 (MOLT-4 leukemia): 11.3 µM
TGI (MOLT-4 leukemia): > 100 µM
GI50 (CAKI-1 renal): 2.45 µM
TGI (CAKI-1 renal): 11.4 µM
GI50 (MCF7 breast): 3.56 µM
TGI (MCF7 breast): 17.8 µM
GI50 (SN12C renal): 3.3 µM
TGI (SN12C renal): 21.2 µM
GI50 (UACC-62 melanoma): 2.15 µM
TGI (UACC-62 melanoma): 8.07 µM
GI50 (SK-MEL-5 melanoma): 4.41 µM
TGI (SK-MEL-5 melanoma): 19.5 µM
GI50 (M14 melanoma): 6.01 µM
TGI (M14 melanoma): 71 µM
GI50 (ACHN renal): 2.97 µM
TGI (ACHN renal): 9.01 µM
GI50 (786-0 renal): 1.8 µM
TGI (786-0 renal): 3.56 µM
GI50 (DU-145 prostate): 7.06 µM
TGI (DU-145 prostate): 55.8 µM
GI50 (A549 NSCLC): 3.28 µM
TGI (A549 NSCLC): 11.4 µM
GI50 (OVCAR-4 ovarian): 2.41 µM
TGI (OVCAR-4 ovarian): 7.87 µM
GI50 (NCI-H460 lung): 3.87 µM
TGI (NCI-H460 lung): 19.6 µM
GI50 (SK-MEL-2 melanoma): 2.61 µM
TGI (SK-MEL-2 melanoma): 7.76 µM
GI50 (UO-31 renal): 2.11 µM
TGI (UO-31 renal): 5.27 µM
GI50 (PC-3 prostate): 6.63 µM
TGI (PC-3 prostate): > 100 µM
GI50 (K-562 leukemia): 3.38 µM
TGI (K-562 leukemia): > 100 µM
GI50 (SF-268 CNS): 3.22 µM
TGI (SF-268 CNS): 19 µM
GI50 (HCT-15 colon): 5.91 µM
TGI (HCT-15 colon): > 100 µM
GI50 (NCI-H23 lung): 7 µM
TGI (NCI-H23 lung): 29 µM
GI50 (NCI-H522 lung): 2.64 µM
TGI (NCI-H522 lung): 10.3 µM
GI50 (T-47D breast): 3.15 µM
TGI (T-47D breast): 14.5 µM
GI50 (KM12 colon): 3.75 µM
TGI (KM12 colon): 27.4 µM
GI50 (A498 renal): 1.88 µM
TGI (A498 renal): 4.37 µM
GI50 (SK-MEL-28 melanoma): 5.46 µM
TGI (SK-MEL-28 melanoma): 59 µM
GI50 (HT29 colon): 4.35 µM
TGI (HT29 colon): 22.3 µM
GI50 (OVCAR-5 ovarian): 7.88 µM
TGI (OVCAR-5 ovarian): 38.3 µM
GI50 (UACC-257 melanoma): 11.2 µM
TGI (UACC-257 melanoma): 66.3 µM
GI50 (HS 578T breast): 2.25 µM
TGI (HS 578T breast): 7.65 µM
GI50 (BT-549 breast): 4.09 µM
TGI (BT-549 breast): 18.1 µM
GI50 (OVCAR-8 ovarian): 3.73 µM
TGI (OVCAR-8 ovarian): 14.4 µM
GI50 (IGROV1 ovarian): 4.42 µM
TGI (IGROV1 ovarian): 30.5 µM
GI50 (MDA-MB-468 breast): 2.11 µM
TGI (MDA-MB-468 breast): 5.83 µM
GI50 (MDA-MB-435): 2.26 µM
TGI (MDA-MB-435): 6.25 µM
GI50 (HCT-116 colon): 3.25 µM
TGI (HCT-116 colon): 10.5 µM
GI50 (HCC-2998 colon): 14.4 µM
TGI (HCC-2998 colon): > 100 µM
GI50 (SR leukemia): 3.93 µM
TGI (SR leukemia): > 100 µM
GI50 (SF-539 CNS): 1.98 µM
TGI (SF-539 CNS): 4.37 µM
GI50 (SF-295 CNS): 3.35 µM
TGI (SF-295 CNS): 13.2 µM
GI50 (MALME-3M melanoma): 1.74 µM
TGI (MALME-3M melanoma): 5.71 µM
GI50 (RPMI-8226 leukemia): 6.96 µM
TGI (RPMI-8226 leukemia): > 100 µM
GI50 (TK-10 renal): 2.15 µM
TGI (TK-10 renal): 5.4 µM
GI50 (SNB-75 CNS): 1 µM
TGI (SNB-75 CNS): 3.22 µM
GI50 (HOP-62 NSCLC): 2.75 µM
TGI (HOP-62 NSCLC): 9.15 µM
